The record followed here is patent publication US7351688B2, “Compositions and methods for less immunogenic protein formulations” (The Research Foundation of State University of New York, priority 2003, dated 2008).

The series relates to Hemophilia A mice. The series is described as follows: Immunogenicity of simple complexes, subcutaneous: total antibody titers (ELISA) and inhibitory titers (Bethesda Units). To be noted: mouse, in vivo, sc. The method, then:
To illustrate this example, simple complexes were prepared with phosphoserine, phosphocholine or phaphatidic acid. Immunogenicity was tested by subcutaneous administration of the complexes in Hemophilia A mice.
Background: In an ELISA, binding on a coated surface is turned into a signal by an enzyme label.

For phosphatidic acid, the “effect on immunogenicity (total antibody titers and inhibitory titers) versus rFVIII” value was “not”.
